Assays:
Format in all cases: in vivo
[1] = test system: ground pearl (Margarodes spp); assay: Field trial in kikuyu turf, control of ground pearl, Robina (Example 6); settings: sc
[2] = test system: ground pearl (Margarodes spp); assay: as above; settings: for Ground pearls/plot, Adults, Pre-spray / Ground pearls/plot, Eggs, Pre-spray: Pre-spray (baseline), 20 cores per plot; for density of ground pearl eggs and adults (in words) / turf vigor (in words): versus untreated, P<0.05
Protocol: A field trial was conducted in kikuyu turf, to evaluate fenpyroximate for control of ground pearl (Margarodes spp). The trial was located at Robina, Queensland (−28.069442, 153.401817), in an area with a known infestation of ground pearl.
All treatments were applied using a hand boom fitted with XC08 nozzles, in a spray volume of 443 L/ha.
The ground pearl density by species was assessed prior to the first application and again 21 days after the third application by sampling 20 cores per plot and recording the number of eggs and adults. Turf vigor was assessed on a 0 to 10 rating scale (0=dead; 10=best quality/color) prior to the first application and 42 days after the third application.
(§1) All data was statistically analyzed using analysis of variance and Fisher's protected least significant different test (Fishers LSD). The level of significance for all tests was P<0.05.

[3] = test system: ground pearl (Margarodes spp); assay: Field trial in kikuyu turf, control of ground pearl, Sydney (Example 2); settings: for NDVI, Pre-spray: Pre-spray (baseline), kikuyu turf, Greenseeker; for Ground pearls/plot, Adults, Pre-spray / Ground pearls/plot, Eggs, Pre-spray / Ground pearls/plot, Adults, 56 DAA3 / Ground pearls/plot, Eggs, 56 DAA3 / NDVI, 56 DAA3: sc; for Ground pearls/plot, Adults, 56 DAA3 / Ground pearls/plot, Eggs, 56 DAA3: 200 g/ha; for Ground pearls/plot, Adults, 56 DAA3 / Ground pearls/plot, Eggs, 56 DAA3 / NDVI, 56 DAA3: 1344 h
Protocol: A field trial was conducted in kikuyu turf, to evaluate fenpyroximate for control of ground pearl (Margarodes spp). The trial was located at Sydney University, New South Wales (−33.888, 151.188), in an area with a known infestation of ground pearl.
All treatments were applied using a hand boom fitted with XR11004 nozzles, in a spray volume of 430 L/ha.
The ground pearl density by species was assessed by sampling 20 cores per plot and recording the number of eggs and adults, and Normalized Difference Vegetation Index (NDVI) was assessed 56 days after the third application using a Greenseeker.
as §1

[4] = versus untreated, P<0.05, with PE 6200

| SMILES | Turf vigor (0-10), 56 DAA3 [1] [a] | Turf vigor (0-10), Pre-spray [2] | Ground pearls/plot, Adults, Pre-spray [2] [ground pearls/plot] | Ground pearls/plot, Eggs, Pre-spray [2] [ground pearls/plot] | density of ground pearl eggs and adults (in words) [2] | turf vigor (in words) [2] | NDVI, Pre-spray [3] | Ground pearls/plot, Adults, Pre-spray [3] [a ground pearls/plot] | Ground pearls/plot, Eggs, Pre-spray [3] [a ground pearls/plot] | Ground pearls/plot, Adults, 56 DAA3 [3] [a ground pearls/plot] | Ground pearls/plot, Eggs, 56 DAA3 [3] | NDVI, 56 DAA3 [3] | density of ground pearl adults (in words) [3, 4] | density of ground pearl eggs (in words) [3, 4] |
| --- | --- | --- | --- | --- | --- | --- | --- | --- | --- | --- | --- | --- | --- | --- |
| CN1COCN(Cc2cnc(Cl)s2)/C1=N\[N+](=O)[O-] [Meridian, Thiamethoxam] | 6.0 | 5.1 | 6.0 | 3.0 | significantly reduced | significantly improved | 7.5 | 15.5 | 7.8 | 9.8 | 8.5 abc ground pearls/plot | 7.5 | significantly reduced | significantly reduced |
| O=[N+]([O-])NC1=NCCN1Cc1ccc(Cl)nc1 [Kohinor 350 SC, Imidacloprid] | 5.9 | 5.1 | 5.7 | 2.0 | significantly reduced | significantly improved | 8.25 | 10.5 | 9.0 | 13.8 | 12.5 cd ground pearls/plot | 7.8 | – | did not reduce |

— patent US20260262641A1 (priority 2023, published 2026)
